Measurements: paper PMC4448990 (Pharmacology Research & Perspectives, 2015)

Key:
[1] = plasma and brain concentrations of eslicarbazepine after ESL; type: in vivo; details: mouse; for concentration at 60 min: 100 mg/kg; for concentration at 15 min: Amygdala kindling
[2] = molecular target: human α3β2γ2 GABAA receptors (Homo sapiens, UniProt P18507+P34903+P47870); experiment: submaximal GABA currents in Ltk cells; type: cell-based
[3] = molecular target: human α5β2γ2 GABAA receptors (Homo sapiens, UniProt P18507+P31644+P47870); experiment: submaximal GABA currents in Ltk cells; type: cell-based
[4] = molecular target: human GRIN1/GRIN2B NMDA receptor (Homo sapiens, UniProt Q05586+Q13224); experiment: submaximal NMDA-receptor-mediated currents in HEK cells; type: cell-based
[5] = human plasma and CSF pharmacokinetics; type: in vivo; details: ESL 1200 mg once daily, protein binding 30%
[6] = molecular target: Adenosine transporter (h) (Homo sapiens, UniProt Q99808); experiment: in vitro selectivity profile; type: binding
Cannabinoid, CB1 (h) = Cannabinoid, CB1 (h) (Homo sapiens, UniProt P21554); experiment: in vitro selectivity profile; type: binding
Dopamine, D4.4 (h) = Dopamine, D4.4 (h) (Homo sapiens, UniProt P21917); experiment: in vitro selectivity profile; type: binding
GABA-B = experiment: in vitro selectivity profile; type: binding; details: eslicarbazepine 400 μmol/L
[7] = system: Glutamate, chloride-dependent site; experiment: in vitro selectivity profile; type: binding; details: eslicarbazepine 400 μmol/L
Glutamate, MK-801 site = experiment: in vitro selectivity profile; type: binding; details: eslicarbazepine 400 μmol/L
[8] = system: Glutamate, NMDA agonist site; experiment: in vitro selectivity profile; type: binding; details: eslicarbazepine 400 μmol/L
Glutamate, mGluR1 = experiment: in vitro selectivity profile; type: binding; details: eslicarbazepine 400 μmol/L
[9] = system: Glycine, strychnine-sensitive; experiment: in vitro selectivity profile; type: binding; details: eslicarbazepine 400 μmol/L
[10] = system: Imidazoline, I2 [central]; experiment: in vitro selectivity profile; type: binding; details: eslicarbazepine 400 μmol/L
Muscarinic, M1 (h) = Muscarinic, M1 (h) (Homo sapiens, UniProt P11229); experiment: in vitro selectivity profile; type: binding
Muscarinic, M4 (h) = Muscarinic, M4 (h) (Homo sapiens, UniProt P08173); experiment: in vitro selectivity profile; type: binding
[11] = system: Nicotinic, neuronal [a-BnTx insensitive] (h); experiment: in vitro selectivity profile; type: binding, human; details: eslicarbazepine 400 μmol/L
Opioid, Mu (h) = Opioid, Mu (h) (Homo sapiens, UniProt P35372); experiment: in vitro selectivity profile; type: binding
Serotonin, 5HT4 = experiment: in vitro selectivity profile; type: binding; details: eslicarbazepine 400 μmol/L
Serotonin, 5HT5A (h) = Serotonin, 5HT5A (h) (Homo sapiens, UniProt P47898); experiment: in vitro selectivity profile; type: binding
Serotonin, 5HT7 (h) = Serotonin, 5HT7 (h) (Homo sapiens, UniProt P34969); experiment: in vitro selectivity profile; type: binding
[12] = system: Nitric oxide, NOS (neuronal-binding); experiment: in vitro selectivity profile; details: eslicarbazepine 400 μmol/L
Calcium channel, type N = experiment: in vitro selectivity profile; type: binding; details: eslicarbazepine 400 μmol/L
[13] = system: Cholecystokinin, CCK2 (CCKB); experiment: in vitro selectivity profile; type: binding; details: eslicarbazepine 400 μmol/L
Galanin, nonselective = experiment: in vitro selectivity profile; type: binding; details: eslicarbazepine 400 μmol/L
[14] = system: Somatostatin, nonselective; experiment: in vitro selectivity profile; type: binding; details: eslicarbazepine 400 μmol/L
[15] = molecular target: Anhydrase, carbonic, isozyme I (h) (Homo sapiens, UniProt P00915); experiment: in vitro selectivity profile; type: biochemical
[16] = system: Decarboxylase, glutamic acid; experiment: in vitro selectivity profile; type: biochemical; details: eslicarbazepine 400 μmol/L
Oxidase, MAO-B, central = experiment: in vitro selectivity profile; type: biochemical; details: eslicarbazepine 400 μmol/L
[17] = molecular target: Protease, caspase, CASP-1 (h) (Homo sapiens, UniProt P29466); experiment: in vitro selectivity profile; type: biochemical
[18] = molecular target: Kinase, protein, CK1d (CSNK1D) (h) (Homo sapiens, UniProt P48730); experiment: in vitro selectivity profile; type: biochemical
Kinase, protein, Fyn (h) = Kinase, protein, Fyn (h) (Homo sapiens, UniProt P06241); experiment: in vitro selectivity profile; type: biochemical
[19] = molecular target: Kinase, protein, GSK3b (h) (Homo sapiens, UniProt P49841); experiment: in vitro selectivity profile; type: biochemical
[20] = molecular target: Kinase, protein, MAPK1 (ERK2, p42mapk) (h) (Homo sapiens, UniProt P28482); experiment: in vitro selectivity profile; type: biochemical
[21] = molecular target: Kinase, protein, SGK1 (h) (Homo sapiens, UniProt O00141); experiment: in vitro selectivity profile; type: biochemical
[22] = system: persistent Na+ current (INaP); details: 300 μmol/L, ref Döser et al. [2013a], [2014], cited from earlier work
transient Na+ channels = details: ref Döser et al. [2013c], [2015]; cited from earlier work
[23] = cited from earlier work

human α5β2γ2 GABAA receptors, sequence (P31644 32-462): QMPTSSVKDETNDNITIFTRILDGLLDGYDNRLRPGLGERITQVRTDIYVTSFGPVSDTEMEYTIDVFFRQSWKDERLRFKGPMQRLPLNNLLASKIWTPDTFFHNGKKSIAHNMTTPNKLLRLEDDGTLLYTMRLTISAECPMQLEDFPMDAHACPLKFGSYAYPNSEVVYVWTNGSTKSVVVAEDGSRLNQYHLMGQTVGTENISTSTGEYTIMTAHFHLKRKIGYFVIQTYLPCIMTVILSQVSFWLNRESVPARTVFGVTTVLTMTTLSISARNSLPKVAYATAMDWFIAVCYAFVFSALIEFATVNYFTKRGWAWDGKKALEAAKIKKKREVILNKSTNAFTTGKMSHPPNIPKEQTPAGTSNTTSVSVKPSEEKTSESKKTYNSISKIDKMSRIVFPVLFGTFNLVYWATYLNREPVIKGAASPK
human α5β2γ2 GABAA receptors, sequence (P47870 25-512 limits assumed): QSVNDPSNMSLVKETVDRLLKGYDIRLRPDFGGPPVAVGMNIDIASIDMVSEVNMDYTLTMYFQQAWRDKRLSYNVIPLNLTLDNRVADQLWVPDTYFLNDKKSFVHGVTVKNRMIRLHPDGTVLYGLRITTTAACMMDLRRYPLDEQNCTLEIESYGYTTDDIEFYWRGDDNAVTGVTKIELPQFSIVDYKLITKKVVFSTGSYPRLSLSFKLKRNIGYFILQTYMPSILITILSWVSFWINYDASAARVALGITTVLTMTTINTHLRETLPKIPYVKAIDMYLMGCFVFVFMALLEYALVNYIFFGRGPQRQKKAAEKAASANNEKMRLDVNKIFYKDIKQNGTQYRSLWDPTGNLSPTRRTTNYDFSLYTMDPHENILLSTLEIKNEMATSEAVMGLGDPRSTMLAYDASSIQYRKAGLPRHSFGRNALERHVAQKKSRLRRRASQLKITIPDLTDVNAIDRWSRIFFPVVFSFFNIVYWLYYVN
human α5β2γ2 GABAA receptors, sequence (P18507 40-475): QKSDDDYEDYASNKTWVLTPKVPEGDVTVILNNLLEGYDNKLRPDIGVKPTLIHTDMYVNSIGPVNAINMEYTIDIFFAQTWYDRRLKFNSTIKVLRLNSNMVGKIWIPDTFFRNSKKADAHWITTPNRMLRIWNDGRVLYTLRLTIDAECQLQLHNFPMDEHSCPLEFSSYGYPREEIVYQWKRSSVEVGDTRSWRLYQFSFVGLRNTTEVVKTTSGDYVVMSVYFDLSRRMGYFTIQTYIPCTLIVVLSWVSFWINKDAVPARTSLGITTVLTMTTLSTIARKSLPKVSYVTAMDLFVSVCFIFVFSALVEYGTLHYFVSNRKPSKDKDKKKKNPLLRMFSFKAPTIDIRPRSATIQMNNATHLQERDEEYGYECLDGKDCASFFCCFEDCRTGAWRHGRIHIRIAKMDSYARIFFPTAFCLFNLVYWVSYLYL
human α3β2γ2 GABAA receptors, sequence (P34903 29-492): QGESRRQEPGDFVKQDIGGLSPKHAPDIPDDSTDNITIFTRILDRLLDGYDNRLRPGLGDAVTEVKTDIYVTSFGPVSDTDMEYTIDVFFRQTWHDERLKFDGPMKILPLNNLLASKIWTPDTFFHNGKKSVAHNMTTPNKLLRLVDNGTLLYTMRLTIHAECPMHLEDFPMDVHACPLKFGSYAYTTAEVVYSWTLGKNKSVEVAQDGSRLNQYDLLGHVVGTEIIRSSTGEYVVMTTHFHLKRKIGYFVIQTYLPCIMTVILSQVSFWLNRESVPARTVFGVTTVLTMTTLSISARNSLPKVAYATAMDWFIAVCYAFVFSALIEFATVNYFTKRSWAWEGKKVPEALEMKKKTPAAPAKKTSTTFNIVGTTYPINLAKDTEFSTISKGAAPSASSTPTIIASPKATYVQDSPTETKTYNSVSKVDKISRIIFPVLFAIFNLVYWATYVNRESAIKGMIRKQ
human α3β2γ2 GABAA receptors, sequence (P47870 25-512 limits assumed): as the sequence (P47870 25-512 limits assumed) above
human α3β2γ2 GABAA receptors, sequence (P18507 40-475): as the sequence (P18507 40-475) above
Opioid, Mu (h), sequence (P35372 whole entry): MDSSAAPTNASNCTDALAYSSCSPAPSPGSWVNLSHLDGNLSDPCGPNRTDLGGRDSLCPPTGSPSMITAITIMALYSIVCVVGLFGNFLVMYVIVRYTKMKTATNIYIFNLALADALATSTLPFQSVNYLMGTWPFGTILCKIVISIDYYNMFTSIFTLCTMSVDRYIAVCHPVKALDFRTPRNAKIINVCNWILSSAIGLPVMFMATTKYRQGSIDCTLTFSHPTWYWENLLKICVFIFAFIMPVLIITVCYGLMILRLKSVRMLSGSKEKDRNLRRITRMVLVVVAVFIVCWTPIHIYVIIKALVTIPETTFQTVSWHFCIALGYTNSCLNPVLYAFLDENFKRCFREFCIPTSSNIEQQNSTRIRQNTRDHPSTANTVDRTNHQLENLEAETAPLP
Dopamine, D4.4 (h), sequence (P21917 whole entry): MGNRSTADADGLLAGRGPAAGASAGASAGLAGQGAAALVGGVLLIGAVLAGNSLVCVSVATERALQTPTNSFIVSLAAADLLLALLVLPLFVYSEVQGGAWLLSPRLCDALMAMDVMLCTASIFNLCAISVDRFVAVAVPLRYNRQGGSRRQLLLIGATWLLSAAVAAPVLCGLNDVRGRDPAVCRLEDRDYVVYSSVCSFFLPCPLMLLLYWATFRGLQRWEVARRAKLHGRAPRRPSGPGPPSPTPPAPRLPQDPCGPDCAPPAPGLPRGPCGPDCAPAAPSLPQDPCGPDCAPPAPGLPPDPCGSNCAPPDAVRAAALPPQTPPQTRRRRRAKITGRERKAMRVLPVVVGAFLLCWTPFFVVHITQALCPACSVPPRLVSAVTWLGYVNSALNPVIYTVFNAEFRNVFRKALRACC
Adenosine transporter (h), sequence (Q99808 whole entry): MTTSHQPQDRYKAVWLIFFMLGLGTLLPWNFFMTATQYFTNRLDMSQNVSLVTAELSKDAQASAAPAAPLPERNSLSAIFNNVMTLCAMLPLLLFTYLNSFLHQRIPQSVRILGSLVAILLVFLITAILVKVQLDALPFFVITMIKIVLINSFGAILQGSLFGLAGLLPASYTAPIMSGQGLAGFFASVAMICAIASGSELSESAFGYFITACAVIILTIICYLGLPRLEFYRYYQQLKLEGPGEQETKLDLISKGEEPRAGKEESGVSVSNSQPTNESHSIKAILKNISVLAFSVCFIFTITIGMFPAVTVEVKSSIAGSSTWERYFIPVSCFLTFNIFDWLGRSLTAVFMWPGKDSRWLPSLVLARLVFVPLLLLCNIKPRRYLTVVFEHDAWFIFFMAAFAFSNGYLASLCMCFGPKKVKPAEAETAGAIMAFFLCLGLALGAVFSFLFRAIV
Kinase, protein, CK1d (CSNK1D) (h), sequence (P48730 whole entry): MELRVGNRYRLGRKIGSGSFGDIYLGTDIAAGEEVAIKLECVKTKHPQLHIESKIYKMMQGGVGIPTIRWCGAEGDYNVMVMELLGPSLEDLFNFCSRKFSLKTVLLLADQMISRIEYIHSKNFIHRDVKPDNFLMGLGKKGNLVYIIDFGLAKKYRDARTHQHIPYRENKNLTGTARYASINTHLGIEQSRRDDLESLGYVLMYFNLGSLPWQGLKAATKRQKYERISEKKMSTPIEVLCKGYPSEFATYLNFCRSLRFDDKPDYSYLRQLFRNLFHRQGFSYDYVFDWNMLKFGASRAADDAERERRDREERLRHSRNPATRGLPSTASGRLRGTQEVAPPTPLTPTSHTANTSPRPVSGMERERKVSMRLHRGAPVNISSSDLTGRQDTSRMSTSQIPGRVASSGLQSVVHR
Protease, caspase, CASP-1 (h), sequence (P29466 120-297 limits assumed): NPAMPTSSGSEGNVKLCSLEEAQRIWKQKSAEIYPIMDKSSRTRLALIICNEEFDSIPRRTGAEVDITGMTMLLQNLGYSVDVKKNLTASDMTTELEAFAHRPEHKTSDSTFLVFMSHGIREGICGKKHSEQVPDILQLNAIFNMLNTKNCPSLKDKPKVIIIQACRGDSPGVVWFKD
Protease, caspase, CASP-1 (h), sequence (P29466 317-404 limits assumed): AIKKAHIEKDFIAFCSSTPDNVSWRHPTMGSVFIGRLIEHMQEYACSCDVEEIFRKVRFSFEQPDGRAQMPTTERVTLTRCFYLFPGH
Kinase, protein, GSK3b (h), sequence (P49841 whole entry): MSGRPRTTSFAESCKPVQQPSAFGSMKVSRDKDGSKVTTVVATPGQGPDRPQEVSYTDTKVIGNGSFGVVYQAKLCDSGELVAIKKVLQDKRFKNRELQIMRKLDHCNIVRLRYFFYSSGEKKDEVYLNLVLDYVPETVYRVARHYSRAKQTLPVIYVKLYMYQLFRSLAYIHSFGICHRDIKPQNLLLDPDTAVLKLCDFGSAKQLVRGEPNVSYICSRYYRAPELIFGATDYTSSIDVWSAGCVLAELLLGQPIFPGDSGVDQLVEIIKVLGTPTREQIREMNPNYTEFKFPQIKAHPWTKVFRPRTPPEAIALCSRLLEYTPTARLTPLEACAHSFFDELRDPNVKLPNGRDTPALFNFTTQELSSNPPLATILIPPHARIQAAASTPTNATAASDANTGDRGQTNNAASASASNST
Anhydrase, carbonic, isozyme I (h), sequence (P00915 whole entry): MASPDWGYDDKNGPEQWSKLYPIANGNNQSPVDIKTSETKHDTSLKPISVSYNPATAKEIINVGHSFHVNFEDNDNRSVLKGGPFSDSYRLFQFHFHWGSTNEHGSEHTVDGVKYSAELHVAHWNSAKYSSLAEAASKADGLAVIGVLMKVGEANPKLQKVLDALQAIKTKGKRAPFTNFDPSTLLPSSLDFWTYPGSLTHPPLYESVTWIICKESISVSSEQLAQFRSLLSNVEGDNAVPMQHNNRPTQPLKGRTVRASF
Kinase, protein, MAPK1 (ERK2, p42mapk) (h), sequence (P28482 whole entry): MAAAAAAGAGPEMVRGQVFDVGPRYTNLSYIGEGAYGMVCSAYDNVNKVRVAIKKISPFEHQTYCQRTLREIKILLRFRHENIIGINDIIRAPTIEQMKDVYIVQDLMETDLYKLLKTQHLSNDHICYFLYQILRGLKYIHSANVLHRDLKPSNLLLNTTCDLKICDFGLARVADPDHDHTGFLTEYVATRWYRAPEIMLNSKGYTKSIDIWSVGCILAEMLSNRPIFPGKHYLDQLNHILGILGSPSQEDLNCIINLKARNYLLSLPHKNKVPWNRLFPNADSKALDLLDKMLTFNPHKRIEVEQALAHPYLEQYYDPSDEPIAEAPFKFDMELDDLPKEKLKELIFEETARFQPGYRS

## NC(=O)N1c2ccccc2C[C@H](O)c2ccccc21 [eslicarbazepine]
[1]; NMRI, Swiss, brain and plasma, other: oral or intraperitoneal
  Kp at 60 min: 3.4 to 5.8
[1]; NMRI, brain (lipid fraction), intraperitoneal, Brain (lipid fraction) Eslicarbazepine, Corneal kindling, ESL 100 mg/kg i.p.
  concentration at 60 min: 564 µM
[1]; NMRI, brain (lipid fraction), intraperitoneal, 200 mg/kg, Brain (lipid fraction) Eslicarbazepine, ESL 200 mg/kg i.p.
  concentration at 15 min: 313 µM
[1]; NMRI, brain (lipid fraction), intraperitoneal, 300 mg/kg, Brain (lipid fraction) Eslicarbazepine, ESL 300 mg/kg i.p.
  concentration at 15 min: 489 µM
[1]; NMRI, brain (organic phase), intraperitoneal, Brain (organic phase) Eslicarbazepine, Corneal kindling, ESL 100 mg/kg i.p.
  concentration at 60 min: 314 µM
[1]; NMRI, brain (organic phase), intraperitoneal, 200 mg/kg, Brain (organic phase) Eslicarbazepine, ESL 200 mg/kg i.p.
  concentration at 15 min: 174 µM
[1]; NMRI, brain (organic phase), intraperitoneal, 300 mg/kg, Brain (organic phase) Eslicarbazepine, ESL 300 mg/kg i.p.
  concentration at 15 min: 273 µM
[1]; Swiss, brain (lipid fraction), oral, Brain (lipid fraction) Eslicarbazepine, Latrunculin A-induced seizures, ESL 100 mg/kg p.o.
  concentration at 60 min: 303 µM
[1]; Swiss, brain (organic phase), oral, Brain (organic phase) Eslicarbazepine, Latrunculin A-induced seizures, ESL 100 mg/kg p.o.
  concentration at 60 min: 169 µM
[2]; 50 μmol/L
  GABA inward current stimulation, α3β2γ2, Mean ± SEM: 95.6 ± 4.8
[2]; 100 μmol/L
  GABA inward current stimulation, α3β2γ2, Mean ± SEM: 97.9 ± 4.2
[2]; 250 μmol/L
  GABA inward current stimulation, α3β2γ2, Mean ± SEM: 96.4 ± 2.2
[2]; 500 μmol/L
  GABA inward current stimulation, α3β2γ2, Mean ± SEM: 91.6 ± 5.6
[2]; 50–500 μmol/L
  effect on submaximal α3β2γ2 GABA currents: did not significantly change submaximal GABA currents
[3]; 50 μmol/L
  GABA inward current stimulation, α5β2γ2, Mean ± SEM: 95.2 ± 2.2
[3]; 100 μmol/L
  GABA inward current stimulation, α5β2γ2, Mean ± SEM: 93.9 ± 0.6
[3]; 250 μmol/L
  GABA inward current stimulation, α5β2γ2, Mean ± SEM: 93.5 ± 1.8
[3]; 500 μmol/L
  GABA inward current stimulation, α5β2γ2, Mean ± SEM: 89.7 ± 3.4
[3]; 50–500 μmol/L
  effect on submaximal α5β2γ2 GABA currents: did not significantly change submaximal GABA currents
[4]
  IC50: 1230 µM
[5]
  eslicarbazepine-free drug, peak plasma: 63 µmol/L
[6]
  inhibition at 400 µM: 10.1%
Cannabinoid, CB1 (h)
  inhibition at 400 µM: 20.4%
Dopamine, D4.4 (h)
  inhibition at 400 µM: 0%
GABA-B
  % inhibition: 11.72%
[7]
  % inhibition: 9.36%
Glutamate, MK-801 site
  % inhibition: 15.45%
[8]
  % inhibition: 0.0%
Glutamate, mGluR1
  % inhibition: 1.82%
[9]
  % inhibition: 25.95%
[10]
  % inhibition: 17.45%
Muscarinic, M1 (h)
  inhibition at 400 µM: 0%
Muscarinic, M4 (h)
  inhibition at 400 µM: 6.08%
[11]
  % inhibition: 23.46%
Opioid, Mu (h)
  inhibition at 400 µM: 0%
Serotonin, 5HT4
  % inhibition: 7.38%
Serotonin, 5HT5A (h)
  inhibition at 400 µM: 11.9%
Serotonin, 5HT7 (h)
  inhibition at 400 µM: 0%
[12]
  % inhibition: 0.0%
Calcium channel, type N
  % inhibition: 23.34%
[13]
  % inhibition: 32.83%
Galanin, nonselective
  % inhibition: 6.11%
[14]
  % inhibition: 0.0%
[15]
  inhibition at 400 µM: 27.7%
[16]
  % inhibition: 0.0%
Oxidase, MAO-B, central
  % inhibition: 0.95%
[17]
  inhibition at 400 µM: 0%
[18]
  inhibition at 400 µM: 5.18%
Kinase, protein, Fyn (h)
  inhibition at 400 µM: 3.58%
[19]
  inhibition at 400 µM: 4.32%
[20]
  inhibition at 400 µM: 0%
[21]
  inhibition at 400 µM: 5.7%
[22]; Scn1b null mice
  INaP in Scn1b null mice: did not cause a paradoxical upregulation of INaP
[22]; wild-type mice
  maximal INaP conductance and firing rate: significantly reduce maximal INaP conductance and efficiently decrease the firing rate
Transient Na+ channels
  neuronal firing in dissociated granule cells from human hippocampus: significantly inhibited neuronal firing
[23]; 1200 mg QD oral ESL, ref Nunes et al. [2013]
  CSF Cmax eslicarbazepine levels: 30 µM
[23]; humans, ref Almeida and Soares-da-Silva [2007]
  share of circulating active moieties after oral ESL: ~95%
[23]; oral ESL 1200 mg QD, ref Perucca et al. [2011]
  peak plasma concentrations of eslicarbazepine: 90 µmol/L
